Measurements reported in PubChem BioAssay (NCI).
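Grown in 96-well plates, cells were treated for 48 hours with each compound at five concentrations. Insufficient inhibition: endpoint recorded as highest concentration tested. Abbreviation: GI50, concentration required for 50% inhibition of growth. At the TGI there is no net growth.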

Assays:
Test in all cases: growth of human tumour cells (NCI), 48 h
[1] = tested on: HCT-15 colon
[2] = tested on: EKVX NSCLC
[3] = tested on: HL-60(TB) leukemia
[4] = tested on: NCI-H522 lung
[5] = tested on: RPMI-8226 leukemia
[6] = tested on: MOLT-4 leukemia
[7] = tested on: SNB-75 CNS
[8] = tested on: OVCAR-4 ovarian
[9] = tested on: SW-620 colon
[10] = tested on: A498 renal

SMILES | TGI [1] [µM] | TGI [2] [µM] | TGI [3] [µM] | TGI [4] [µM] | TGI [5] [µM] | TGI [6] [µM] | TGI [7] [µM] | TGI [8] [µM] | TGI [9] [µM] | TGI [10] [µM] | GI50 [1] [µM] | GI50 [2] [µM] | GI50 [3] [µM] | GI50 [4] [µM] | GI50 [5] [µM] | GI50 [6] [µM] | GI50 [7] [µM] | GI50 [9] [µM] | GI50 [10] [µM] | GI50 [8] [µM]
C=CC1(C)CCC(C(C)C(=O)C(C=C(C)C)OC(C)=O)C12C(=O)Oc1ccccc1C2=O (stereo unspecified) | > 100 | > 100 | 64.6 | > 100 | 68.2 | 78.7 | > 100 | > 100 | > 100 |  |  |  |  |  |  |  |  |  |  | 
S=CN1CCCCC1 | > 100 | > 100 | > 100 | > 100 | > 100 | > 100 | > 100 |  | > 100 | > 100 |  |  |  |  |  |  |  |  |  | 
CN(C)/[N+]([O-])=N/Oc1cc(Nc2cccc(C(=O)O)c2)c([N+](=O)[O-])cc1[N+](=O)[O-] | > 100 | > 100 | > 100 | > 100 | > 100 | > 100 | > 100 |  | > 100 |  | > 100 | > 100 | 52.2 | 69.3 | > 100 | 61.4 | > 100 | > 100 |  | 
Cc1ccc(Nc2nc(NCCO)c3ccccc3n2)cc1C | 13.3 |  | 31 | 18 | 9.46 | 11 | 20.9 | 15.6 | 15.7 | 2.06 | 3.26 |  | 11 | 4.68 | 2.55 | 2.86 | 8.14 | 4.03 | 0.0535 | 3.14
CCCCCCCCCCCCCS(=O)(=O)O | > 100 | > 100 | > 100 | > 100 |  |  | > 100 | > 100 | > 100 | > 100 |  |  |  |  |  |  |  |  |  | 
COC(=O)C1(C)C=C(Nc2ccccc2)C(=O)N1c1ccccc1 (stereo unspecified) |  | > 100 | > 100 | > 100 | > 100 | > 100 |  | > 100 | > 100 |  |  |  |  |  |  |  |  |  |  | 
CCCCCCCCCCCCN1C(C)=CS/C1=C\C=C\c1scc(C)[n+]1CCCCCCCCCCCC | 21.6 |  |  | 5.11 |  | > 100 | 4.96 | 13.2 | 7.19 | 4.09 | 2.32 |  |  | 1.7 |  | 2.55 | 1.2 | 1.71 | 0.822 | 1.43
CCCc1c2c([nH]c(=O)c1C)C(=O)c1[nH]c(=O)c(C)c(CCC)c1C2=O | 58.3 |  | 24.8 |  |  | 57 | 55.9 | 54.6 | 20.2 | > 100 |  |  |  |  |  |  |  |  |  | 
OCCN(CCO)N=Nc1ccc(-c2nc3ccccc3[nH]2)cc1 | 51.2 | 37.5 | 32.1 | > 100 | 52.4 | 38.5 | > 100 | 36.1 | 38.4 |  | 21.8 | 17.1 | 10.8 | 50.2 | 21.3 | 14.4 | 28.9 | 18.9 |  | 15.9
CC(C)C[C@H](NC(=O)[C@H](Cc1ccccc1)n1ccc(N2CCCCC2)cc1=O)B(O)O | 22.1 |  |  | 2.25 | > 100 | > 100 | 3.82 | > 100 | > 100 | 0.736 | 1.61 |  |  | 0.305 | 0.321 | 0.308 | 0.461 | 0.376 | 0.127 | 2.06
CC(C(=O)N1C(=O)N(C(=O)C(C)C(O)c2ccccc2)C(c2ccccc2)C1c1ccccc1)C(O)c1ccccc1 (stereo unspecified) | > 100 |  | 6.79 | 48.4 | 13.6 | 11.9 | 54.8 | > 100 | > 100 |  |  |  |  |  |  |  |  |  |  | 
Cc1ccc(C)c(NC(=O)C(=O)C2C(=O)C3=C(CC2(C)C)Nc2ccccc2S3)c1 (stereo unspecified) | > 100 | > 100 | > 100 | > 100 |  | > 100 | > 100 | > 100 | > 100 |  |  |  |  |  |  |  |  |  |  | 
Cn1c(C(N)=O)cc2c1-c1nc(Nc3ccccc3)ncc1CCC2 | 28.6 |  | 49.7 | 22.7 |  | 50.4 | 8.35 |  | 97.7 | 0.955 | 3.4 |  | 6.77 | 4.13 |  | 4.21 | 1.61 | 6.31 | 0.204 | 
CC(=O)N1CCC2(C=Nc3ccccc32)CC1 | > 100 | > 100 | > 100 |  | > 100 | > 100 | > 100 | > 100 | > 100 | > 100 |  |  |  |  |  |  |  |  |  | 
CC[C@@H]1C[C@@H]2CN3CCc4c([nH]c5ccc(OC)cc45)C(COC(=O)c4ccc(OC)c(OC)c4)(C2)C13 | > 100 | > 100 | 39.2 |  | 86.4 | 62.3 | > 100 | > 100 | 40.1 | 61.4 |  |  |  |  |  |  |  |  |  | 
CN/N=C(/Cc1occc(=O)c1O)C(=O)Nc1ccc(C)c(C)c1 | > 100 | > 100 | > 100 | > 100 | > 100 | > 100 |  | > 100 | > 100 | > 100 |  |  |  |  |  |  |  |  |  | 
Oc1ccc(C(c2ccccc2)(c2ccccc2)c2ccccc2)cc1 | > 100 | 29.3 |  | 27.2 | 45.5 | 36.6 |  | 25.2 | 66.1 | 35.1 | 27.5 | 15.4 |  | 13.7 | 22 | 17.8 |  | 22.4 | 20.5 | 12.3
Cc1ccc(NC(=O)c2[nH]c(=S)nc(N)c2-c2ccccc2C)cc1C | > 100 | > 100 |  | > 100 | > 100 | > 100 | > 100 |  | > 100 | > 100 |  |  |  |  |  |  |  |  |  | 
CN(C)CCNC(=O)c1ccc(Nc2nc3ccccc3c3occc23)cc1 | 4.75 | 28.7 |  | 29.8 | 9.05 | 5.17 | 25.5 | > 100 | 25.8 | 28.1 | 2.12 | 11.7 |  | 13.3 | 2.9 | 2.75 | 10.5 | 5.96 | 12.3 | 26.7
